According to US6737383B1, “Herbicidal oxadiazolidines” (priority 1999, dated 2004):

Experiments:
bedstraw = experiment: Test B pre/postemergence bedstraw; assay type: in vivo, Galium aparine
Method in brief: (§1)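 Test chemicals in a non-phytotoxic solvent mixture with surfactant were sprayed preemergence onto planted seeds and postemergence onto plants 2 to 18 cm tall (1- to 4-leaf stage). After twelve to sixteen days in a greenhouse, injury was visually rated against untreated controls from 0 (no effect) to 10 (complete control).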

cocklebur = experiment: Test B pre/postemergence cocklebur; assay type: in vivo, Xanthium strumarium
Method in brief: as §1

corn = experiment: Test B pre/postemergence corn; assay type: in vivo, Zea mays
Method in brief: as §1

crabgrass = experiment: Test B pre/postemergence crabgrass; assay type: in vivo, Digitaria sanguinalis
Method in brief: as §1

giant foxtail = experiment: Test B pre/postemergence giant foxtail; assay type: in vivo, Setaria faberii
Method in brief: as §1

morningglory = experiment: Test B pre/postemergence morningglory; assay type: in vivo, Ipomoea hederacea
Method in brief: as §1

pigweed = experiment: Test B pre/postemergence pigweed; assay type: in vivo, Amaranthus retroflexus
Method in brief: as §1

rape = experiment: Test B pre/postemergence rape; assay type: in vivo, Brassica napus
Method in brief: as §1

soybean = experiment: Test B pre/postemergence soybean; assay type: in vivo, Glycine max
Method in brief: as §1

velvetleaf = experiment: Test B pre/postemergence velvetleaf; assay type: in vivo, Abutilon theophrasti
Method in brief: as §1

wheat = experiment: Test B pre/postemergence wheat; assay type: in vivo, Triticum aestivum
Method in brief: as §1

wild oat = experiment: Test B pre/postemergence wild oat; assay type: in vivo, Avena fatua
Method in brief: as §1

purple nutsedge = experiment: Test B pre/postemergence purple nutsedge; assay type: in vivo, Cyperus rotundus
Method in brief: as §1

rice = experiment: Test B flood test rice; assay type: in vivo, Oryza sativa
Method in brief: (§2)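 Read-out is a visual response score from 0 (no effect) to 10 (complete control), assigned by comparison with untreated controls. Treatment was applied at the 2-leaf stage, and plants stayed in the greenhouse for twelve to sixteen days before scoring.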

smallflower flatsedge = experiment: Test B flood test smallflower flatsedge; assay type: in vivo, Cyperus difformis
Method in brief: as §2

duck salad = experiment: Test B flood test duck salad; assay type: in vivo, Heteranthera limosa
Method in brief: as §2

[1] = Postemergence, Rate 62 g/ha, scale 0 to 10, 0 is no effect, 10 is complete control
[2] = Postemergence, Rate 250 g/ha, scale 0 to 10, 0 no effect, 10 complete control
[3] = Preemergence, Rate 62 g/ha, scale 0 to 10 (0 no effect, 10 complete control)
[4] = Preemergence, Rate 125 g/ha, scale 0 to 10 (0 no effect, 10 complete control)
[5] = Preemergence, Rate 250 g/ha, scale of 0 to 10 where 0 is no effect and 10 is complete control
[6] = Preemergence, Rate 500 g/ha, scale 0 (no effect) to 10 (complete control)
[7] = Rate 125 g/ha, Postemergence, scale 0 to 10, 0 no effect, 10 complete control
[8] = Rate 500 g/ha, Postemergence, scale 0 to 10, 0 no effect, 10 complete control
[9] = Rate 62 g/ha, headed Pre-emergence (flood test species), scale 0 to 10 (0 no effect, 10 complete control)
[10] = Rate 125 g/ha, Pre-emergence, flood test species, scale 0 to 10 where 0 is no effect and 10 is complete control
[11] = Rate 250 g/ha, headed Pre-emergence (flood test species), scale 0 to 10 (0 no effect, 10 complete control)
[12] = Rate 500 g/ha, headed Pre-emergence (flood test species), scale 0 to 10 (0 no effect, 10 complete control)

CCN(Cc1ccccc1)C(=O)n1oc(=O)n(-c2ccccc2C)c1=O [Compound 71]
0: Bedstraw plant response rating (bedstraw; [1]) | Bedstraw plant response rating (bedstraw; [2]) | Bedstraw plant response rating (bedstraw; [3]) | Plant response rating, Bedstraw (bedstraw; [4]) | Plant response rating, Bedstraw (bedstraw; [5]) | Bedstraw plant response rating (bedstraw; [6]) | Bedstraw plant response rating (bedstraw; [7]) | Bedstraw plant response rating (bedstraw; [8]) | Cocklebur plant response rating (cocklebur; [1]) | Cocklebur plant response rating (cocklebur; [2]) | Cocklebur plant response rating (cocklebur; [3]) | Plant response rating, Cocklebur (cocklebur; [4]) | Plant response rating, Cocklebur (cocklebur; [5]) | Cocklebur plant response rating (cocklebur; [6]) | Cocklebur plant response rating (cocklebur; [7]) | Cocklebur plant response rating (cocklebur; [8]) | Corn plant response rating (corn; [1]) | Corn plant response rating (corn; [2]) | Corn plant response rating (corn; [3]) | Plant response rating, Corn (corn; [4]) | Plant response rating, Corn (corn; [5]) | Corn plant response rating (corn; [6]) | Corn plant response rating (corn; [7]) | Corn plant response rating (corn; [8]) | Crabgrass plant response rating (crabgrass; [1]) | Crabgrass plant response rating (crabgrass; [2]) | Crabgrass plant response rating (crabgrass; [3]) | Plant response rating, Crabgrass (crabgrass; [4]) | Plant response rating, Crabgrass (crabgrass; [5]) | Crabgrass plant response rating (crabgrass; [6]) | Crabgrass plant response rating (crabgrass; [7]) | Crabgrass plant response rating (crabgrass; [8]) | Giant foxtail plant response rating (giant foxtail; [1]) | Giant foxtail plant response rating (giant foxtail; [2]) | Giant foxtail plant response rating (giant foxtail; [3]) | Plant response rating, Giant foxtail (giant foxtail; [4]) | Plant response rating, Giant foxtail (giant foxtail; [5]) | Giant foxtail plant response rating (giant foxtail; [6]) | Giant foxtail plant response rating (giant foxtail; [7]) | Giant foxtail plant response rating (giant foxtail; [8]) | Morningglory plant response rating (morningglory; [1]) | Morningglory plant response rating (morningglory; [2]) | Morningglory plant response rating (morningglory; [3]) | Plant response rating, Morningglory (morningglory; [4]) | Plant response rating, Morningglory (morningglory; [5]) | Morningglory plant response rating (morningglory; [6]) | Morningglory plant response rating (morningglory; [7]) | Morningglory plant response rating (morningglory; [8]) | Redroot pigweed plant response rating (pigweed; [1]) | Redroot pigweed plant response rating (pigweed; [2]) | Redroot pigweed plant response rating (pigweed; [3]) | Plant response rating, Redroot pigweed (pigweed; [4]) | Plant response rating, Redroot pigweed (pigweed; [5]) | Redroot pigweed plant response rating (pigweed; [6]) | Redroot pigweed plant response rating (pigweed; [7]) | Redroot pigweed plant response rating (pigweed; [8]) | Rape plant response rating (rape; [1]) | Rape plant response rating (rape; [2]) | Rape plant response rating (rape; [3]) | Plant response rating, Rape (rape; [4]) | Plant response rating, Rape (rape; [5]) | Rape plant response rating (rape; [6]) | Rape plant response rating (rape; [7]) | Rape plant response rating (rape; [8]) | Soybean plant response rating (soybean; [1]) | Soybean plant response rating (soybean; [2]) | Soybean plant response rating (soybean; [3]) | Plant response rating, Soybean (soybean; [4]) | Plant response rating, Soybean (soybean; [5]) | Soybean plant response rating (soybean; [6]) | Soybean plant response rating (soybean; [7]) | Soybean plant response rating (soybean; [8]) | Velvetleaf plant response rating (velvetleaf; [1]) | Velvetleaf plant response rating (velvetleaf; [2]) | Velvetleaf plant response rating (velvetleaf; [3]) | Plant response rating, Velvetleaf (velvetleaf; [4]) | Plant response rating, Velvetleaf (velvetleaf; [5]) | Velvetleaf plant response rating (velvetleaf; [6]) | Velvetleaf plant response rating (velvetleaf; [7]) | Velvetleaf plant response rating (velvetleaf; [8]) | Wheat plant response rating (wheat; [1]) | Wheat plant response rating (wheat; [2]) | Wheat plant response rating (wheat; [3]) | Plant response rating, Wheat (wheat; [4]) | Plant response rating, Wheat (wheat; [5]) | Wheat plant response rating (wheat; [6]) | Wheat plant response rating (wheat; [7]) | Wheat plant response rating (wheat; [8]) | Wild oats plant response rating (wild oat; [1]) | Wild oats plant response rating (wild oat; [2]) | Wild oats plant response rating (wild oat; [3]) | Plant response rating, Wild oats (wild oat; [4]) | Plant response rating, Wild oats (wild oat; [5]) | Wild oats plant response rating (wild oat; [6]) | Wild oats plant response rating (wild oat; [7]) | Wild oats plant response rating (wild oat; [8]) | Nutsedge plant response rating (purple nutsedge; [1]) | Nutsedge plant response rating (purple nutsedge; [2]) | Nutsedge plant response rating (purple nutsedge; [3]) | Plant response rating, Nutsedge (purple nutsedge; [4]) | Plant response rating, Nutsedge (purple nutsedge; [5]) | Nutsedge plant response rating (purple nutsedge; [6]) | Nutsedge plant response rating (purple nutsedge; [7]) | Nutsedge plant response rating (purple nutsedge; [8]) | Rice plant response rating (rice; [9]) | Rice plant response rating (rice; [10]) | Rice plant response rating (rice; [11]) | Plant response rating, Rice (rice; [12]) | S. Flatsedge plant response rating (smallflower flatsedge; [9]) | S. Flatsedge plant response rating (smallflower flatsedge; [10]) | S. Flatsedge plant response rating (smallflower flatsedge; [11]) | Plant response rating, S. Flatsedge (smallflower flatsedge; [12]) | Ducksalad plant response rating (duck salad; [9]) | Ducksalad plant response rating (duck salad; [10]) | Ducksalad plant response rating (duck salad; [11]) | Plant response rating, Ducksalad (duck salad; [12])
